Where two headings read alike, the source gives them in different places. Residues, ends and D or L forms follow the SMILES beside them.
Tests used:
[1] = molecular target: IL-17RA/IL17RC dimerization induced by IL-17A (Homo sapiens, UniProt Q16552); experiment: IL-17RA/IL17RC dimerization assay in response to IL-17A (PathHunter Cytokine Receptor Assay); format: cell-based; settings: IL-17A at EC80; read-out: IC50 in IL-17RA/IL7RC dimerization assay
In short: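 PathHunter cells with IL-17RA and IL-17RC tagged for β-galactosidase complementation were preincubated 60 min with peptide (1% vehicle). IL-17A was then added at EC80 for 6–16 h at 37 °C, and chemiluminescence was read. Inhibition is relative to the EC80 and vehicle controls.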

[2] = format: physicochemical; settings: pH 7.8
Protocol: Each lyophilized peptide was weighed in an amber vial. A calculated volume of phosphate buffered solution at pH 7.8 was added in order to directly obtain 10 mM Stock Solutions. The recovered suspensions were stirred for 30 minutes by orbital shaker incubator at 37° C. Subsequent dilutions were performed to obtain the more diluted stock solutions for the less soluble compounds.
In order to evaluate the stability and the solubility, all the stock solutions were stored at 25° C. The title was evaluated by UHPLC-MS analysis in comparison with the standard solutions, at 3 time points: T0, 3 days, 1 week.
The chromatographic profile was evaluated for the quantitative assay while the MS spectra were detected as support in the stability studies.
Each peptide was weighed and directly diluted at 100 μM with the phosphate buffer at pH 7.8. The solutions were stirred for 5 minutes by vortex and heated at 37° C. for 20 minutes. The obtained standard solution was stored at 25° C. in the dark under controlled temperature.
A portion of the stock solutions was collected in an amber vial and diluted to 100 μM by phosphate buffer at pH 7.8 (dilution factor, 1:100).
Reversed-phase UHPLC was performed operating at a flow rate of 0.3 ml/min with a Luna Omega Polar C18 column ([…] 1.6 μm, 2.1×100 mm). Solvent A was 0.5% Formic Acid in water and solvent B was 0.5% Formic Acid in acetonitrile. First, samples were loaded onto the column and washed isocratically at 10% B for 3 min. Then, a gradient of 10-95% B was run over 22 min, held at 95% for 2 min, and then decreased to 10% over 1 min and held, for the pressure stabilization, for 5 min. UV Absorption was monitored by DAD (220-400 nm). ESI-MS ion trap was used for the monitoring of TIC.

[3] = Isoelectric point, log D and log P (SiriusT3); format: physicochemical; settings: for IP (isoelectric point): 25±1° C., 0.15 M KCl
Protocol: The main physicochemical properties (Isoelectric point (IP), log D (7.4) and log P) of the peptides of Table 8 below were determined by using the SiriusT3 apparatus (Sirius Analytical Instruments Ltd., East Sussex, UK) equipped with an Ag/AgCl double junction reference pH electrode, a Sirius D-PAS spectrometer and a turbidity sensing device. […] An overhead stirrer was used and a temperature probe (Peltier controller) monitored the temperature during the course of the titration. The titration experiments were conducted in 0.15 M KCl Ionic Strength Adjusted solution (ISA water) under a nitrogen atmosphere at a temperature of 25±1° C. All tests were performed using standardized 0.5 M KOH and 0.5 M HCl as titration reagents, for the partition coefficient tests a saturated Octanol in ISA water (5% of ISA water) was used as partition solvent. The pKas were determined by potentiometric method by pH-metric titration. The powder (around 0.5 mg) was dissolved in 1.5 ml of ISA water and the titration was performed in triplicate in the pH range 2.0−12.0.

[4] = octanol/ISA water, read-out: logP
[5] = pH 7.4, pH 7.4, octanol/ISA water, read-out: Log D (7.4)

Sequence of IL-17RA/IL17RC dimerization induced by IL-17A (Q16552 24-155): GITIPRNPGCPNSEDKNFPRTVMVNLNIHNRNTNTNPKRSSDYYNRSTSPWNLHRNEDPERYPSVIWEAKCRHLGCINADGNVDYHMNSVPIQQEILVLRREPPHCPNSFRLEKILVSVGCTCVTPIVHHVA

Structure (SMILES)	IC50 [1]	solubility [2]	IP (isoelectric point) [3]	logP ([3]; logP)	logD ([3]; pH 7.4, Log D (7.4))	logP [3, 4]	logD [3, 5]
CC[C@H](C)[C@H](NC(C)=O)C(=O)N[C@@H](Cc1c[nH]cn1)C(=O)N[C@H](C(=O)N[C@H](C(=O)N[C@H](C(=O)N1CCC[C@H]1C(=O)N[C@@H](C)C(=O)N[C@@H](CC(=O)O)C(=O)N[C@@H](CC(C)C)C(=O)N[C@@H](Cc1c[nH]c2ccccc12)C(=O)N[C@@H](CC(=O)O)C(=O)N[C@@H](Cc1c[nH]c2ccccc12)C(=O)N[C@H](C(=O)N[C@@H](CCC(=O)O)C(=O)N[C@@H](CCC(=O)O)C(N)=O)C(C)C)[C@@H](C)CC)[C@@H](C)O)C(C)C [SEQ ID NO: 15] (Ac-IHVTIPADLWDWVEE-NH2)	< 400 nM	≥ 50 µM	3.51	1.66	1.88		
CC[C@H](C)[C@H](NC(=O)[C@H](Cc1c[nH]c2ccccc12)NC(=O)[C@H](CCC(=O)O)NC(=O)[C@H](Cc1ccc(O)cc1)NC(=O)[C@H](CC(C)C)NC(=O)[C@H](CC(=O)O)NC(=O)[C@H](C)NC(=O)[C@@H]1CCCN1C(=O)[C@@H](NC(=O)[C@@H](NC(=O)[C@@H](NC(=O)[C@H](CCSC)NC(=O)[C@@H](NC(C)=O)C(C)C)C(C)C)[C@@H](C)O)[C@@H](C)CC)C(=O)N[C@@H](CC(N)=O)C(=O)N[C@@H](CCCCN)C(N)=O [SEQ ID NO: 16] (Ac-VMVTIPADLYEWINK-NH2)	< 400 nM	> 10000 µM	5.19			0.13	0.24
CC[C@H](C)[C@H](NC(=O)[C@H](Cc1c[nH]c2ccccc12)NC(=O)[C@H](CCC(=O)O)NC(=O)[C@H](Cc1ccc(O)cc1)NC(=O)[C@H](CC(C)C)NC(=O)[C@H](CC(=O)O)NC(=O)[C@H](C)NC(=O)[C@@H]1CCCN1C(=O)[C@@H](NC(=O)[C@@H](NC(=O)[C@@H](NC(=O)[C@H](CCSC)NC(=O)[C@@H](NC(C)=O)C(C)C)C(C)C)[C@@H](C)O)[C@@H](C)CC)C(=O)N[C@@H](CCCNC(=N)N)C(=O)N[C@@H](CCCNC(=N)N)C(N)=O [SEQ ID NO: 17] (Ac-VMVTIPADLYEWIRR-NH2)	< 400 nM	> 10000 µM	8.05			-0.44	-3.68
CC[C@H](C)[C@H](NC(=O)[C@H](Cc1c[nH]c2ccccc12)NC(=O)[C@H](CCC(=O)O)NC(=O)[C@H](Cc1ccc(O)cc1)NC(=O)[C@H](CC(C)C)NC(=O)[C@H](CC(=O)O)NC(=O)[C@H](C)NC(=O)[C@@H]1CCCN1C(=O)[C@@H](NC(=O)[C@@H](NC(=O)[C@@H](NC(=O)[C@H](CCSC)NC(=O)[C@@H](NC(C)=O)C(C)C)C(C)C)[C@@H](C)O)[C@@H](C)CC)C(=O)N[C@@H](CCC(=O)O)C(=O)N[C@@H](CCC(=O)O)C(=O)N[C@@H](CCCNC(=N)N)C(=O)N[C@@H](CCCNC(=N)N)C(=O)N[C@@H](CCCNC(=N)N)C(=O)N[C@@H](CCCNC(=N)N)C(=O)N[C@@H](CCCNC(=N)N)C(=O)N[C@@H](CCCNC(=N)N)C(N)=O [SEQ ID NO: 19] (Ac-VMVTIPADLYEWIEERRRRRR-NH2)	< 1000 nM	≥ 100 µM	12.49				-3.94
CC[C@H](C)[C@H](NC(=O)[C@H](Cc1c[nH]c2ccccc12)NC(=O)[C@H](CCC(=O)O)NC(=O)[C@H](Cc1ccc(O)cc1)NC(=O)[C@H](CC(C)C)NC(=O)[C@H](CC(=O)O)NC(=O)[C@H](C)NC(=O)[C@@H]1CCCN1C(=O)[C@@H](NC(=O)[C@@H](NC(=O)[C@@H](NC(=O)[C@H](CCSC)NC(=O)[C@@H](NC(C)=O)C(C)C)C(C)C)[C@@H](C)O)[C@@H](C)CC)C(=O)N[C@@H](CCC(=O)O)C(=O)N[C@@H](CCC(=O)O)C(=O)N[C@@H](CCCNC(=N)N)C(=O)N[C@@H](CCCNC(=N)N)C(=O)N[C@@H](CCCNC(=N)N)C(N)=O [SEQ ID NO: 20] (Ac-VMVTIPADLYEWIEERRR-NH2)	< 1000 nM	≥ 100 µM	11.29				-3.69
CC[C@H](C)[C@H](NC(=O)[C@H](Cc1c[nH]c2ccccc12)NC(=O)[C@H](CCC(=O)O)NC(=O)[C@H](Cc1ccc(O)cc1)NC(=O)[C@H](CC(C)C)NC(=O)[C@H](CC(=O)O)NC(=O)[C@H](C)NC(=O)[C@@H]1CCCN1C(=O)[C@@H](NC(=O)[C@@H](NC(=O)[C@@H](NC(=O)[C@H](CCSC)NC(=O)[C@@H](NC(C)=O)C(C)C)C(C)C)[C@@H](C)O)[C@@H](C)CC)C(=O)N[C@@H](CCC(=O)O)C(=O)N[C@@H](CCC(=O)O)C(=O)N[C@@H](C)C(=O)N[C@@H](CCCNC(=N)N)C(=O)N[C@@H](CCCCN)C(=O)N[C@@H](CCCCN)C(=O)N[C@@H](C)C(=O)N[C@@H](C)C(=O)N[C@@H](CCCCN)C(=O)N[C@@H](C)C(N)=O [SEQ ID NO: 21] (Ac-VMVTIPADLYEWIEEARKKAAKA-NH2)	< 1000 nM	> 10000 µM	10.6			-4.99	-0.55
CC[C@H](C)[C@H](NC(=O)[C@H](Cc1c[nH]c2ccccc12)NC(=O)[C@H](CCC(=O)O)NC(=O)[C@H](Cc1ccc(O)cc1)NC(=O)[C@H](CC(C)C)NC(=O)[C@H](CC(=O)O)NC(=O)[C@H](C)NC(=O)[C@@H]1CCCN1C(=O)[C@@H](NC(=O)[C@@H](NC(=O)[C@@H](NC(=O)[C@H](CCSC)NC(=O)[C@@H](NC(C)=O)C(C)C)C(C)C)[C@@H](C)O)[C@@H](C)CC)C(=O)N[C@@H](CCC(=O)O)C(=O)N[C@@H](CCC(=O)O)C(=O)NCC(=O)NCC(=O)N[C@H](C(=O)N[C@@H](Cc1c[nH]c2ccccc12)C(=O)N[C@@H](Cc1c[nH]c2ccccc12)C(=O)N[C@H](C(=O)N[C@@H](CCC(=O)O)C(=O)N[C@@H](Cc1c[nH]c2ccccc12)C(=O)N[C@@H](CO)C(=O)N[C@@H](CCC(N)=O)C(N)=O)[C@@H](C)O)[C@@H](C)O [SEQ ID NO: 22] (Ac-VMVTIPADLYEWIEEGGTWWTEWSQ-NH2)	< 1000 nM	> 10000 µM	4.26			0.4	-3.18
CC[C@H](C)[C@H](NC(=O)[C@H](Cc1c[nH]c2ccccc12)NC(=O)[C@H](CCC(=O)O)NC(=O)[C@H](Cc1ccc(O)cc1)NC(=O)[C@H](CC(C)C)NC(=O)[C@H](CC(=O)O)NC(=O)[C@H](C)NC(=O)[C@@H]1CCCN1C(=O)[C@@H](NC(=O)[C@@H](NC(=O)[C@@H](NC(=O)[C@H](CCSC)NC(=O)[C@@H](NC(C)=O)C(C)C)C(C)C)[C@@H](C)O)[C@@H](C)CC)C(=O)N[C@@H](CCC(=O)O)C(=O)N[C@@H](CCC(=O)O)C(=O)N[C@H](C(=O)N[C@@H](Cc1c[nH]c2ccccc12)C(=O)N[C@@H](Cc1c[nH]c2ccccc12)C(=O)N[C@@H](CCC(=O)O)C(=O)N[C@H](C(=O)N[C@@H](Cc1c[nH]c2ccccc12)C(=O)N[C@@H](Cc1c[nH]c2ccccc12)C(N)=O)[C@@H](C)O)[C@@H](C)O [SEQ ID NO: 23] (Ac-VMVTIPADLYEWIEETWWETWW-NH2)	< 1000 nM	≥ 50 µM	4.26			1.01	-2.24
CC[C@H](C)[C@H](NC(=O)[C@H](Cc1c[nH]c2ccccc12)NC(=O)[C@H](CCC(=O)O)NC(=O)[C@H](Cc1ccc(O)cc1)NC(=O)[C@H](CC(C)C)NC(=O)[C@H](CC(=O)O)NC(=O)[C@H](C)NC(=O)[C@@H]1CCCN1C(=O)[C@@H](NC(=O)[C@@H](NC(=O)[C@@H](NC(=O)[C@H](CCSC)NC(=O)[C@@H](NC(C)=O)C(C)C)C(C)C)[C@@H](C)O)[C@@H](C)CC)C(=O)N[C@@H](CCC(=O)O)C(=O)N[C@@H](CCC(=O)O)C(=O)N[C@H](C(=O)N1CCC[C@H]1C(=O)NCC(=O)N[C@@H](Cc1c[nH]c2ccccc12)C(=O)NCC(N)=O)C(C)C [SEQ ID NO: 24] (Ac-VMVTIPADLYEWIEEVPGWG-NH2)	< 1000 nM	< 50 µM	5.14			2.45	2.15

From US11236129B2, “IL-17A binding peptides and medical uses thereof” (Dompe' Farmaceutici S.P.A., priority 2018, dated 2022)
